The values that follow come from patent US5935998A, “Use of all allylamine derivatives such as terbinafine, in the manufacture of a medicament for the treatment of helicobacter pylori infection or associated diseases” (Novartis AG, priority 1995, dated 1999).

In brackets after ≈: the same amount, converted by molar mass. Like-named read-outs stand apart in the source and are kept apart here. A value given as a limit tells only on which side of the number the result lay.

One data set has as its system Helicobacter pylori. The data set can be described thus: MIC (minimum inhibitory concentration) determination using various clinical isolates of H.pylori. To be noted: Mueller-Hinton agar with 7% defibrinated horse blood, pH 7.2, 72 hours, 37° C., 5% CO2. In kind it is cell-based. How it is done:
The activity of the compounds of formula I against Helicobacter pylori can be verified e.g. by determination of the MIC (minimum inhibitory concentration) in the following test method using various clinical isolates of H.pylori: Clinical isolates of H.pylori are stored at -70° C. in Brucella broth with 20% glycerol. All isolates are subcultured on fresh blood agar Blood agar base No. 2, Unipath, with 5% defibrinated horse blood) and confirmed as Helicobacter pylori by Gram shin, catalase, oxidase and rapid-urease tests. Initial incubation is carried out microaerobically in a variable-atmosphere incubator (6% O2, 10% CO2, 3% H2, 81% N2) at 37° C. Subcultures and MIC tests are carried out in humidified air with 5% CO2 at 37° C. Test compounds are incorporated into Mueller-Hinton agar (Unipath) with 7% defibrinated horse blood at pH 7.2. After growth for 72 hours on blood agar H.pylori suspensions are made in Brucella broth (Unipath) equivalent to McFarland standard No. 3. This represents 10^8 cfu/ml H.pylori. A multipoint inoculator will deliver 1 μl per spot (approximately 10^5 cfu). The type strain NCTC 11637 is used as a control in each run. […] All tests are carried out in triplicate.

The nature of another data set: in vivo. To be noted: mouse, acute.

Take `C(=C\c1ccccc1)/CN1CCCC[C@@H]1c1cccc2ccccc12` [N-[(E)-3-phenyl-2-propenyl-2-piperidinyl]: in the data set on Helicobacter pylori, the minimum inhibitory concentration (MIC) (in general, the lowest concentration found to suppress growth) lay in the range of 0.06 to 4 µg/mL (≈ 0.183 to 12.2 µM). With `CN(C/C=C/C#CC(C)(C)C)Cc1cccc2ccccc12`, the LD50 (usually the dose at which mortality reaches 50%) in “in vivo” (ip, i.p., read-out: LD50 i.p.) is 790 mg/kg; in the data set “in vivo” (po, p.o., read-out: LD50 p.o.) it was over 1000 mg/kg.
